Experimental data taken from patent US20110190267A1, “PRODRUGS OF OPIOIDS AND USES THEREOF” (priority 2010, published 2011).
Several values for one entry are separate records, joined by “and”; a condition that tells them apart may be missing. Equal entries are not always repeated. Marks after values point to notes of the source that are not given here.

Columns and labels:
[1] = Pharmacokinetics of dextrorphan or dextrorphan PABA carbamate, dogs (Example 48); type: in vivo, beagle dogs
Protocol: Data were normalized to 1 mg/kg

[2] = Pharmacokinetics of dextrorphan or dextrorphan PABA carbamate, monkeys (Example 47); type: in vivo, cynomolgus monkeys; conditions: for half-life: read-out: t½ (converted)
Protocol: (§1) Blood samples were taken at various times after administration, and submitted to analysis for the parent drug and prodrug using a validated LC-MS-MS assay. Pharmacokinetic parameters derived from the plasma analytical data were determined using Win Nonlin.

[3] = Pharmacokinetics of levorphanol or levorphanol PABA carbamate, monkeys (Example 45); type: in vivo; conditions: levorphanol in plasma after oral levorphanol, 5 mg free base equivalent/kg; for half-life: read-out: t½ (converted)
Protocol: as §1

[4] = Pharmacokinetics of levorphanol or levorphanol PABA carbamate, dogs (Example 46); type: in vivo, Beagle dogs; conditions: for AUC / Cmax / Tmax / half-life / T>50%Cmax: levorphanol in plasma after oral levorphanol, 5 mg free base equivalents/kg, female beagle dog; for AUC: AUClast; for half-life / T>50%Cmax: maximum of 30% extrapolation allowed; for half-life: read-out: t½ (converted)
Protocol: as §1

[5] = Pharmacokinetics of nalbuphine or nalbuphine PABA carbamate, rats (Example 42); type: in vivo, Wistar rats; conditions: for half-life: read-out: t½ (converted)
Protocol: Test substances (nalbuphine at 3 mg nalbuphine free base equivalents/kg or nalbuphine para amino benzoic acid carbamate at 3 mg nalbuphine free base equivalents/kg) were administered by oral gavage to groups of male Wistar rats in a parallel group study design.
Blood samples were taken at various times after administration and submitted to analysis for the parent drug and pro-drug using a validated LC-MS-MS assay. Pharmacokinetic parameters derived from the plasma analytical data were determined using Win Nonlin.

[6] = dextrorphan in plasma after oral dextrorphan, 5 mg free base equivalents/kg, female dogs, single animal
[7] = dextrorphan in plasma after oral dextrorphan, 5 mg free base equivalents/kg, male cynomolgus monkeys, single animal
[8] = male cynomolgus monkeys, single animal
[9] = male, cynomolgus monkey, plasma, po, 5 mg levorphanol free base equivalents/kg, Mean
[10] = male, cynomolgus monkey, plasma, po, 5 mg levorphanol free base equivalents/kg, single animal
[11] = nalbuphine PABA carbamate in plasma after oral p-aminobenzoic acid carbamate prodrug, 3 mg nalbuphine equivs/kg, male rats, single animal
[12] = nalbuphine in plasma after oral nalbuphine, 3 mg free base equivalents/kg, male rats, single animal

For `CN1CC[C@@]23CCCC[C@@H]2[C@@H]1Cc1ccc(O)cc13` [dextrorphan], the “T>50%Cmax” value ([1]; dextrorphan in plasma after oral dextrorphan, 5 mg free base equivalents/kg, female dogs, Mean) was 2.4 h, the AUC [1, 6] was 18.9 ng·h/mL and 13.4 ng·h/mL and 8.3 ng·h/mL and 10.7 ng·h/mL and 12.4 ng·h/mL and the Cmax [1, 6] was 4.2 ng/mL and 2.1 ng/mL and 3.8 ng/mL and 2.7 ng/mL. The “T>50%Cmax” value [1, 6] was 2.9 h (2×) and 2.4 h and 2.2 h and 1.6 h, the Tmax [1, 6] was 1.0 h and the “T>50% Cmax of dextrorphan” value ([1]; dogs, oral) was 2.4 h. It also gave an AUC ([1]; female, beagle, dog, plasma, po, 5 mg dextrorphan free base equivalents/kg, dextrorphan in plasma after oral dextrorphan, 5 mg free base equivalents/kg, female dogs, Mean, read-out: AUC) of 12.7 ng·h/mL, a Cmax ([1]; female, beagle, dog, plasma, po, 5 mg dextrorphan free base equivalents/kg, dextrorphan in plasma after oral dextrorphan, 5 mg free base equivalents/kg, female dogs, Mean, read-out: Cmax) of 3.3 ng/mL and a Tmax ([1]; female, beagle, dog, plasma, po, 5 mg dextrorphan free base equivalents/kg, dextrorphan in plasma after oral dextrorphan, 5 mg free base equivalents/kg, female dogs, Mean, read-out: Tmax) of 0.6 h. It also gave a Cmax ([1]; female, beagle, dog, plasma, po, 5 mg dextrorphan free base equivalents/kg, dextrorphan in plasma after oral dextrorphan, 5 mg free base equivalents/kg, female dogs, single animal, read-out: Cmax) of 3.6 ng/mL, a Tmax ([1]; female, beagle, dog, plasma, po, 5 mg dextrorphan free base equivalents/kg, dextrorphan in plasma after oral dextrorphan, 5 mg free base equivalents/kg, female dogs, single animal, read-out: Tmax) of 0.5 h and a half-life ([1]; female, beagle, dog, plasma, po, 5 mg free base equivalents/kg, dextrorphan in plasma after oral dextrorphan, 5 mg free base equivalents/kg, female dogs, Mean, read-out: t½ (converted)) of 3.1 h. The “T>50%Cmax” value ([2]; dextrorphan in plasma after oral dextrorphan, 5 mg free base equivalents/kg, male cynomolgus monkeys, Mean) was 3.5 h, the Cmax [2, 7] was 3.0 ng/mL and 3.5 ng/mL and 5.5 ng/mL and the “T>50%Cmax” value [2, 7] was 3.7 h and 3.5 h and 4.5 h and 2.5 h and 3.3 h. The Tmax [2, 7] was 1.0 h, the AUC ([2]; dextrorphan in plasma after oral dextrorphan, 5 mg free base equivalents/kg, male cynomolgus monkeys, single animal (animal 12: extrapolation of AUC data 39%)) was 14* ng · h/mL and 19 ng · h/mL (2×) and 13 ng · h/mL and the AUC ([2]; male, cynomolgus monkey, plasma, po, 5 mg dextrorphan free base equivalents/kg, dextrorphan in plasma after oral dextrorphan, 5 mg free base equivalents/kg, male cynomolgus monkeys, Mean, read-out: AUC) was 17 ng·h/mL. For the same compound, the Cmax ([2]; male, cynomolgus monkey, plasma, po, 5 mg dextrorphan free base equivalents/kg, dextrorphan in plasma after oral dextrorphan, 5 mg free base equivalents/kg, male cynomolgus monkeys, Mean, read-out: Cmax) was 3.9 ng/mL, the Tmax ([2]; male, cynomolgus monkey, plasma, po, 5 mg dextrorphan free base equivalents/kg, dextrorphan in plasma after oral dextrorphan, 5 mg free base equivalents/kg, male cynomolgus monkeys, Mean, read-out: Tmax) was 1.6 h and the half-life ([2]; male, cynomolgus monkey, plasma, po, 5 mg dextrorphan free base equivalents/kg, dextrorphan in plasma after oral dextrorphan, 5 mg free base equivalents/kg, male cynomolgus monkeys, Mean) was 2.1 h. The Cmax ([2]; male, cynomolgus monkey, plasma, po, 5 mg dextrorphan free base equivalents/kg, dextrorphan in plasma after oral dextrorphan, 5 mg free base equivalents/kg, male cynomolgus monkeys, single animal, read-out: Cmax) was 4.3 ng/mL, the Tmax ([2]; male, cynomolgus monkey, plasma, po, 5 mg dextrorphan free base equivalents/kg, dextrorphan in plasma after oral dextrorphan, 5 mg free base equivalents/kg, male cynomolgus monkeys, single animal, read-out: Tmax) was 2 h and the half-life ([2]; male, cynomolgus monkey, plasma, po, 5 mg dextrorphan free base equivalents/kg, dextrorphan in plasma after oral dextrorphan, 5 mg free base equivalents/kg, male cynomolgus monkeys, single animal) was 2.3 h. For the same compound, the AUC ([2]; male, cynomolgus monkey, plasma, po, 5 mg dextrorphan free base equivalents/kg, read-out: AUC) was 20 ng·h/mL.

For `CN1CC[C@]23CCCC[C@H]2[C@H]1Cc1ccc(O)cc13` [levorphanol], the AUC [3, 8] was 28 ng·h/mL and 34 ng·h/mL and 27 ng·h/mL, the Cmax [3, 8] was 6.6 ng/mL and 8.2 ng/mL and 7.6 ng/mL and the t½ [3, 8] was 2.1 h and 1.6 h. It also gave a Tmax [3, 9] of 1.5 h, an AUC ([3]; male, cynomolgus monkey, plasma, po, 5 mg levorphanol free base equivalents/kg, Mean, read-out: AUC) of 28 ng·h/mL and a Cmax ([3]; male, cynomolgus monkey, plasma, po, 5 mg levorphanol free base equivalents/kg, Mean, read-out: Cmax) of 7.1 ng/mL. The half-life [3, 9] was 1.7 h, the Tmax [3, 10] was 2 h and the AUC ([3]; male, cynomolgus monkey, plasma, po, 5 mg levorphanol free base equivalents/kg, single animal, read-out: AUC) was 22 ng·h/mL. The Cmax ([3]; male, cynomolgus monkey, plasma, po, 5 mg levorphanol free base equivalents/kg, single animal, read-out: Cmax) was 6.2 ng/mL, the half-life [3, 10] was 1.5 h and the “T>50%Cmax of levorphanol” value ([4]; dogs, oral 5 mg levorphanol free base equivalents/kg) was 1.4 h. For the same compound, the AUC ([4]; female, beagle, dog, plasma, po, 5 mg levorphanol free base equivalents/kg, Mean, read-out: AUC) was 10 ng·h/mL, the Cmax ([4]; female, beagle, dog, plasma, po, 5 mg levorphanol free base equivalents/kg, Mean, read-out: Cmax) was 3.8 ng/mL and the Tmax ([4]; female, beagle, dog, plasma, po, 5 mg levorphanol free base equivalents/kg, Mean, read-out: Tmax) was 0.6 h. For the same compound, the half-life ([4]; female, beagle, dog, plasma, po, 5 mg levorphanol free base equivalents/kg, Mean) was 1.2 h, the half-life ([4]; female, beagle, dog, plasma, po, 5 mg levorphanol free base equivalents/kg, single animal) was 0.8 h and the Tmax ([4]; female, beagle, dog, plasma, po, 5 mg levorphanol free base equivalents/kg, single animal, read-out: Tmax) was 1 h. For the same compound, the AUC ([4]; single animal) was 5.8 ng·h/mL and 19 ng·h/mL and 16 ng·h/mL and 6.6 ng·h/mL and 2.8 ng·h/mL, the “T>50%Cmax” value ([4]; Mean) was 1.4 h and the “T>50%Cmax” value ([4]; single animal) was 1.5 h and 1.3 h. The Cmax ([4]; single animal) was 4.2 ng/mL and 3.2 ng/mL and 5.3 ng/mL and 4.3 ng/mL and 1.9 ng/mL and the Tmax ([4]; single animal) was 0.5 h.

`O=C(Nc1ccc(C(=O)O)cc1)Oc1ccc2c3c1O[C@H]1[C@@H](O)CC[C@@]4(O)[C@@H](C2)N(CC2CCC2)CC[C@]314` [nalbuphine PABA carbamate, nalbuphine para amino benzoic acid carbamate] showed an AUC ([5]; male, Wistar, rat, plasma, po, 3 mg nalbuphine free base equivalents/kg, nalbuphine PABA carbamate in plasma after oral p-aminobenzoic acid carbamate prodrug, 3 mg nalbuphine equivs/kg, Mean, read-out: AUC) of 11 ng·h/mL, a Cmax ([5]; male, Wistar, rat, plasma, po, 3 mg nalbuphine free base equivalents/kg, nalbuphine PABA carbamate in plasma after oral p-aminobenzoic acid carbamate prodrug, 3 mg nalbuphine equivs/kg, Mean, read-out: Cmax) of 12 ng/mL and a Tmax ([5]; male, Wistar, rat, plasma, po, 3 mg nalbuphine free base equivalents/kg, nalbuphine PABA carbamate in plasma after oral p-aminobenzoic acid carbamate prodrug, 3 mg nalbuphine equivs/kg, Mean, read-out: Tmax) of 0.25 h. The half-life ([5]; male, Wistar, rat, plasma, po, 3 mg nalbuphine free base equivalents/kg, nalbuphine PABA carbamate in plasma after oral p-aminobenzoic acid carbamate prodrug, 3 mg nalbuphine equivs/kg, Mean) was 0.8 h, the AUC ([5]; male, Wistar, rat, plasma, po, 3 mg nalbuphine free base equivalents/kg, nalbuphine PABA carbamate in plasma after oral p-aminobenzoic acid carbamate prodrug, 3 mg nalbuphine equivs/kg, single animal, read-out: AUC) was 14 ng·h/mL and the Cmax ([5]; male, Wistar, rat, plasma, po, 3 mg nalbuphine free base equivalents/kg, nalbuphine PABA carbamate in plasma after oral p-aminobenzoic acid carbamate prodrug, 3 mg nalbuphine equivs/kg, single animal, read-out: Cmax) was 16 ng/mL. For the same compound, the Tmax ([5]; male, Wistar, rat, plasma, po, 3 mg nalbuphine free base equivalents/kg, nalbuphine PABA carbamate in plasma after oral p-aminobenzoic acid carbamate prodrug, 3 mg nalbuphine equivs/kg, single animal, read-out: Tmax) was 0.25 h, the AUC [5, 11] was 9.4 ng·h/mL and 11 ng·h/mL and the Cmax [5, 11] was 11 ng/mL and 9.2 ng/mL. For the same compound, the t½ [5, 11] was 0.5 h and 0.8 h and 1.2 h.

`Oc1ccc2c3c1O[C@H]1[C@@H](O)CC[C@@]4(O)[C@@H](C2)N(CC2CCC2)CC[C@]314` [nalbuphine] showed an AUC ([5]; male, Wistar, rat, plasma, po, 3 mg nalbuphine free base equivalents/kg, nalbuphine in plasma after oral nalbuphine, 3 mg free base equivalents/kg, Mean, read-out: AUC) of 1.2 ng·h/mL, a Cmax ([5]; male, Wistar, rat, plasma, po, 3 mg nalbuphine free base equivalents/kg, nalbuphine in plasma after oral nalbuphine, 3 mg free base equivalents/kg, Mean, read-out: Cmax) of 1 ng/mL and a Tmax ([5]; male, Wistar, rat, plasma, po, 3 mg nalbuphine free base equivalents/kg, nalbuphine in plasma after oral nalbuphine, 3 mg free base equivalents/kg, Mean, read-out: Tmax) of 0.8 h. The half-life ([5]; male, Wistar, rat, plasma, po, 3 mg nalbuphine free base equivalents/kg, nalbuphine in plasma after oral nalbuphine, 3 mg free base equivalents/kg, Mean) was 1.4 h, the Cmax ([5]; male, Wistar, rat, plasma, po, 3 mg nalbuphine free base equivalents/kg, nalbuphine in plasma after oral nalbuphine, 3 mg free base equivalents/kg, single animal, read-out: Cmax) was 1.4 ng/mL and the Tmax ([5]; male, Wistar, rat, plasma, po, 3 mg nalbuphine free base equivalents/kg, nalbuphine in plasma after oral nalbuphine, 3 mg free base equivalents/kg, single animal, read-out: Tmax) was 0.5 h. For the same compound, the half-life ([5]; male, Wistar, rat, plasma, po, 3 mg nalbuphine free base equivalents/kg, nalbuphine in plasma after oral nalbuphine, 3 mg free base equivalents/kg, single animal) was 1.2 h, the “T>50%Cmax” value ([5]; nalbuphine in plasma after oral nalbuphine, 3 mg free base equivalents/kg, male rats, Mean) was 1.3 h and the AUC [5, 12] was 1.8 ng·h/mL and 0.4 ng·h/mL and 1.3 ng·h/mL. The Cmax [5, 12] was 0.7 ng/mL and 0.8 ng/mL, the “T>50%Cmax” value [5, 12] was 1.5 h and 0.7 h and 1.8 h and the Tmax [5, 12] was 1.0 h. It also gave a t½ [5, 12] of 1.6 h.
